According to patent publication EP0007672A1, “Isocyanoalkenes, process and useful intermediates for their preparation, pharmaceutical and fungicidal preparations containing those isocyanoalkenes and the use of the fungicidal preparations in agriculture” (GIST-BROCADES N.V., priority 1978, dated 1980):
Values after ≈ are worked out from the molar mass of the structure shown. Like-named read-outs stand apart in the source and are kept apart here.

Experiments:
Assay in all cases: MIC (Minimum Inhibitory Concentration)
Assay type in all cases: cell-based
[1] = system: Candida albicans
[2] = system: Pasteurella multocida; details: Pasteurella multocida A 723; read-out: MIC values
[3] = system: Trichophyton equinum
[4] = system: Trichophyton mentagrophytus
[5] = system: Trichophyton quickeaneum; details: Trichophyton quickeaneum A 2040; read-out: MIC values
[6] = system: Trichophyton rubrum
[7] = system: Trichophyton schoenleinii; details: Trichophyton schoenleinii 435-63; read-out: MIC values
[8] = system: Trichophyton soudanese joyeux; details: Trichophyton soudanese joyeux 440-63; read-out: MIC values
[9] = system: Trichophyton tonsurans; details: Trichophyton tonsurans 561-50; read-out: MIC values
[10] = system: Trichophyton verrucosum
[11] = system: Trichophyton violoceum; details: Trichophyton violoceum 442-62; read-out: MIC values
[12] = system: Streptococcus haemolyticus; details: Streptococcus haemolyticus A 1088; read-out: MIC values
[13] = Candida albicans A 7, read-out: MIC values
[14] = Candida albicans A 3140, read-out: MIC values
[15] = Candida albicans A 3141, read-out: MIC values
[16] = Candida albicans A 3144, read-out: MIC values
[17] = Candida albicans A 3145, read-out: MIC values
[18] = Candida albicans A 3165, read-out: MIC values
[19] = Candida albicans A 3166, read-out: MIC values
[20] = Candida albicans A 3167, read-out: MIC values
[21] = Candida albicans A 3168, read-out: MIC values
[22] = Candida albicans A 3169, read-out: MIC values
[23] = Candida albicans A 3171, read-out: MIC values
[24] = Candida albicans A 3190, read-out: MIC values
[25] = Candida albicans A 3191, read-out: MIC values
[26] = Candida albicans A 3194, read-out: MIC values
[27] = Candida albicans A 3196, read-out: MIC values
[28] = Trichophyton equinum 182-76, read-out: MIC values
[29] = Trichophyton equinum 856-71, read-out: MIC values
[30] = Trichophyton mentagrophytus 367-68, read-out: MIC values
[31] = Trichophyton mentagrophytus 421-67, read-out: MIC values
[32] = Trichophyton mentagrophytus A 3252, read-out: MIC values
[33] = Trichophyton mentagrophytus R 177, read-out: MIC values
[34] = Trichophyton mentagrophytus R 178, read-out: MIC values
[35] = Trichophyton mentagrophytus RRL 305, read-out: MIC values
[36] = Trichophyton rubrum 218-65, read-out: MIC values
[37] = Trichophyton rubrum 494-62, read-out: MIC values
[38] = Trichophyton rubrum A 810, read-out: MIC values
[39] = Trichophyton verrucosum 134-66, read-out: MIC values
[40] = Trichophyton verrucosum A 2922, read-out: MIC values
[41] = Candida albicans A 3142, read-out: MIC values
[42] = Candida albicans A 3143, read-out: MIC values
[43] = Candida albicans A 3184, read-out: MIC values
[44] = Candida albicans A 3192, read-out: MIC values

| SMILES | MIC [1, 13] | MIC [1, 14] | MIC [1, 15] | MIC [1, 16] | MIC [1, 17] | MIC [1, 18] | MIC [1, 19] | MIC [1, 20] | MIC [1, 21] | MIC [1, 22] | MIC [1, 23] | MIC [1, 24] | MIC [1, 25] | MIC [1, 26] | MIC [1, 27] | MIC [3, 28] | MIC [4, 30] | MIC [4, 31] | MIC [4, 32] | MIC [4, 33] | other results |
| --- | --- | --- | --- | --- | --- | --- | --- | --- | --- | --- | --- | --- | --- | --- | --- | --- | --- | --- | --- | --- | --- |
| [C-]#[N+]C(=C(C)CC)S(=O)(=O)c1ccc(C)cc1 [Example 27a, 1-isocyano-2-methyl-1-(4-toluenesulphonyl)-1-butene] | 0.2 µg/mL (≈ 0.802 µM) | 0.8 µg/mL (≈ 3.21 µM) | < 0.05 µg/mL | 0.2 µg/mL (≈ 0.802 µM) | < 0.05 µg/mL | 0.8 µg/mL (≈ 3.21 µM) | 3 µg/mL (≈ 12 µM) | 0.2 µg/mL (≈ 0.802 µM) | 0.2 µg/mL (≈ 0.802 µM) | 0.1 µg/mL (≈ 0.401 µM) | 0.2 µg/mL (≈ 0.802 µM) | < 0.05 µg/mL | 0.1 µg/mL (≈ 0.401 µM) | < 0.05 µg/mL | 0.4 µg/mL (≈ 1.6 µM) | 0.4 µg/mL (≈ 1.6 µM) | 6 µg/mL (≈ 24.1 µM) | 6 µg/mL (≈ 24.1 µM) | 6 µg/mL (≈ 24.1 µM) | 6 µg/mL (≈ 24.1 µM) | MIC [2]: 1.5 µg/mL (≈ 6.02 µM); MIC [3, 29]: < 0.05 µg/mL; MIC [4, 34]: 6 µg/mL (≈ 24.1 µM); MIC [4, 35]: 3 µg/mL (≈ 12 µM); MIC [5]: 0.1 µg/mL (≈ 0.401 µM); MIC [6, 36]: 0.4 µg/mL (≈ 1.6 µM); MIC [6, 37]: 0.4 µg/mL (≈ 1.6 µM); MIC [6, 38]: 0.4 µg/mL (≈ 1.6 µM); MIC [7]: 6 µg/mL (≈ 24.1 µM); MIC [8]: 6 µg/mL (≈ 24.1 µM); MIC [9]: 3 µg/mL (≈ 12 µM); MIC [10, 39]: 0.8 µg/mL (≈ 3.21 µM); MIC [10, 40]: 6 µg/mL (≈ 24.1 µM); MIC [11]: 12.5 µg/mL (≈ 50.1 µM) |
| [C-]#[N+]C(=C(C)C)S(=O)(=O)c1ccc(C)cc1 [Example 5, 1-isocyano-2-methyl-1-(4-toluenesulphonyl)-1-propene] | 3 µg/mL (≈ 12.7 µM) | 12.5 µg/mL (≈ 53.1 µM) | 25 µg/mL (≈ 106 µM) | 25 µg/mL (≈ 106 µM) | 12.5 µg/mL (≈ 53.1 µM) | 12.5 µg/mL (≈ 53.1 µM) | 12.5 µg/mL (≈ 53.1 µM) | 25 µg/mL (≈ 106 µM) | 25 µg/mL (≈ 106 µM) | 25 µg/mL (≈ 106 µM) | 12.5 µg/mL (≈ 53.1 µM) | 12.5 µg/mL (≈ 53.1 µM) | 25 µg/mL (≈ 106 µM) | 25 µg/mL (≈ 106 µM) | 25 µg/mL (≈ 106 µM) | 3 µg/mL (≈ 12.7 µM) | 1.5 µg/mL (≈ 6.37 µM) | 1.5 µg/mL (≈ 6.37 µM) | 0.8 µg/mL (≈ 3.4 µM) | 6 µg/mL (≈ 25.5 µM) | MIC [1, 41]: 25 µg/mL (≈ 106 µM); MIC [1, 42]: 25 µg/mL (≈ 106 µM); MIC [1, 43]: 12.5 µg/mL (≈ 53.1 µM); MIC [1, 44]: 25 µg/mL (≈ 106 µM); MIC [3, 29]: 6 µg/mL (≈ 25.5 µM); MIC [4, 34]: 50 µg/mL (≈ 212 µM); MIC [4, 35]: 3 µg/mL (≈ 12.7 µM); MIC [5]: 0.8 µg/mL (≈ 3.4 µM); MIC [6, 36]: 0.4 µg/mL (≈ 1.7 µM); MIC [6, 37]: 0.4 µg/mL (≈ 1.7 µM); MIC [7]: 0.2 µg/mL (≈ 0.85 µM); MIC [8]: 12.5 µg/mL (≈ 53.1 µM); MIC [9]: < 0.1 µg/mL; MIC [11]: 0.1 µg/mL (≈ 0.425 µM) |
| [C-]#[N+]C(=C(C)c1cccs1)S(=O)(=O)c1ccc(C)cc1 [Example 17, 1-isocyano-1-(4-toluenesulphonyl)-2-(2-thienyl)-1-propene] | 0.75 µg/mL (≈ 2.47 µM) | 1.5 µg/mL (≈ 4.94 µM) | 1.5 µg/mL (≈ 4.94 µM) | 1.5 µg/mL (≈ 4.94 µM) | 3 µg/mL (≈ 9.89 µM) | 1.5 µg/mL (≈ 4.94 µM) | 1.5 µg/mL (≈ 4.94 µM) | 1.5 µg/mL (≈ 4.94 µM) | 3 µg/mL (≈ 9.89 µM) | 1.5 µg/mL (≈ 4.94 µM) | 1.5 µg/mL (≈ 4.94 µM) | 1.5 µg/mL (≈ 4.94 µM) | 3 µg/mL (≈ 9.89 µM) | 3 µg/mL (≈ 9.89 µM) | 1.5 µg/mL (≈ 4.94 µM) | > 100 µg/mL | 100 µg/mL (≈ 330 µM) | > 100 µg/mL | 6 µg/mL (≈ 19.8 µM) | > 100 µg/mL | MIC [1, 41]: 1.5 µg/mL (≈ 4.94 µM); MIC [1, 42]: 1.5 µg/mL (≈ 4.94 µM); MIC [1, 43]: 1.5 µg/mL (≈ 4.94 µM); MIC [1, 44]: 1.5 µg/mL (≈ 4.94 µM); MIC [2]: 3 µg/mL (≈ 9.89 µM); MIC [12]: 6 µg/mL (≈ 19.8 µM); MIC ([3]; Trichophyton equinum 441-51, read-out: MIC values): 0.75 µg/mL (≈ 2.47 µM); MIC [4, 34]: > 100 µg/mL; MIC [5]: 6 µg/mL (≈ 19.8 µM); MIC [6, 36]: 6 µg/mL (≈ 19.8 µM); MIC [6, 37]: 6 µg/mL (≈ 19.8 µM); MIC [6, 38]: 12.5 µg/mL (≈ 41.2 µM); MIC [7]: 3 µg/mL (≈ 9.89 µM); MIC [9]: < 0.4 µg/mL; MIC [10, 39]: 0.75 µg/mL (≈ 2.47 µM); MIC [10, 40]: 0.4 µg/mL (≈ 1.32 µM); MIC [11]: 3 µg/mL (≈ 9.89 µM) |
